Laboratory results taken from patent US10561736B1, “Apoptosis inhibitor formulations for prevention of hearing loss” (Spiral Therapeutics, Inc., priority 2019, dated 2020).
“Also recorded” adds a separate entry of the source. Read-outs that look alike come from different tables or passages of the source.

Key:
[1] = cochlear distribution after IT administration (absorption); format: in vivo, rat; conditions: LPT99 formulation in hydrogel, detection limit 2 ng/mL=3.2 nM
[2] = tested on: rats; experiment: GLP auditory safety study after single IT administration; format: in vivo, rat
Description: Gross observations were recorded, and selected organs were weighed.

[3] = tested on: HEI-OC1 cells; conditions: cellular model of CisPt-induced apoptosis; IEB Symposium abstracts 2016; cited from earlier work
[4] = in vitro release assay from P407 hydrogel through dialysis membrane into artificial perilymph; format: physicochemical; conditions: 3500 Da dialysis membrane, 37° C.
Description: The in vitro release assay was performed using cellulose dialysis membranes of 3500 Da (OrDial D35-MWCO 3500, Orange Scientific) to simulate the round window membrane, located between the middle ear and the inner ear, as it is the first barrier for the drug to reach the inner ear where it will exert its pharmacological action. (See FIG. 1) Artificial perilymph (NaCl 137 mM, KCl 5 mM, CaCl2 2 mM, MgCl2 1 mM and NaHCO3 1 mM) was used to simulate the environment inside the inner ear, since this is the liquid that interact with the drug after crossing the round window. The assay was performed at 37° C., continuing with the simulation of ear conditions.
To prepare the release assay, ten (10) mL of the LPT99 loaded hydrogel was placed inside a 3500 Da dialysis membrane, the membrane with the hydrogel was introduced into a 100 ml borosilicate glass lab bottle and 30 ml of artificial perilymph was added. All samples were kept under magnetic stirring at 37° C. […]
Samples were taken at different time points (1 h, 3 h, 6 h, 1 day, 2 days, 3 days, 6 days, 7 days, 8 days, 9 days, 10 days, 13 days, 14 days and 15 days) at which time 5 mL were withdrawn with a graduated glass pipette and replaced with equivalent volume of artificial perilymph. The collected samples were analyzed to determine the amount of drug released from the hydrogel at each time point. […]

[5] = tested on: Sprague-Dawley rats; experiment: GLP acute systemic toxicity study with toxicokinetics, single IP dose; format: in vivo; conditions: rat; for dose proportionality of Cmax and AUClast: IP 100 to 750 mg/kg/day
Description: (§1) A GLP acute systemic toxicity study was conducted with LPT99 administered via IP injection in Sprague-Dawley rats. The acute systemic toxicity study was preceded by a non-GLP maximum tolerated dose (MTD) toxicity study, via the same administration and test system, which determined the MTD of LTP99 to be 1000 mg/kg.
(§2) LPT99 was suspended in vehicle [0.5% w/v methylcellulose and 0.1% v/v TWEEN® 80 in Milli-Q water] and administered intraperitoneally to Sprague-Dawley rats as a single dose at the doses of 100 (low—G2/G2TK), 300 (mid—G3/G3TK), and 750 (high—G4/G4TK) mg/kg body weight. The rats in vehicle control groups (G1/G1TK) received the vehicle alone. The dose volume administered was at an equivolume of 10 mL/kg body weight for all groups.
(§3) The main toxicity groups consist of 15 rats/sex/group in G1 and G4 groups and 10 rats/sex/group in G2 and G3 groups. The toxicokinetic groups consisted of 6 males and 6 female rats each for the prevention groups, whereas the vehicle control group had 3 male and 3 female rats.

[6] = as above; format: in vivo; conditions: Sprague-Dawley, plasma, rat
Description: as §1, §2, §3

[7] = tested on: Sprague-Dawley rats; experiment: functional observation battery, IP injection; format: in vivo; conditions: rat
Description: as §2, with “A functional observation battery was conducted with LPT99 administered via IP (intraperitoneal) injection in Sprague-Dawley rats. The study was preceded by a non-GLP maximum tolerated dose (MTD) toxicity study, via the same administration and test system, which determined the MTD of LTP99 to be 1000 mg/kg. LPT99” for “LPT99”, “TWEEN®80” for “TWEEN® 80”
as §2

[8] = calculation of the maximum recommended starting dose (MRSD); parameters: species or system human
Description: For the calculation of the maximum recommended starting dose (MRSD) the following parameters have been considered:
The total perilymph volume in rat will be then: (Cochlearperilymph+Semicircular canalsperilymph)=STperilymph+SVperilymph+Semicircular canalsperilymph=1.04+1.59+0.9=3.53 μl
The total perilymph volume in human has been described to be 158 μl (Buckingham and Valvassori, Ann. Otol. Rhinol. Laryngol. 2001, 110(2), 113-7).
The amount of LPT99 to be injected in humans is normalized with the volumes of perilymph in rats and humans and the amount injected at the NOAEL dose as follows: LPT99 injected,rats/Volume perilymphrats=LPT99 injected,humans/Volume perilymphhumans 15 μg/3.53 μl=Y μg/158 μl; Y=671.38 μg.
MRSD should not exceed that which is calculated to deliver 1/10th of the estimated perilymph concentration of LPT99 in rat at the NOAEL, when normalized to the perilymph volume in humans. 67.14 μg ( 1/10 of 671.38 μg) is calculated as the maximum mass of LPT99 to be delivered in a volume of 200 μl. The MRSD would be then 67.14 μg/200 μl=535 μM.

In the case of COc1ccc2[nH]cc(CCNC(=O)CC3C(=O)N(CCc4ccc(Cl)cc4Cl)CC(=O)N3CCc3cccs3)c2c1 (centres unmarked) [LPT99, 2-(4-(2,4-dichlorophenethyl)-3,6-dioxo-1-(2-(thiophen-2-yl)ethyl)piperazin-2-yl)-N-(2-(5-methoxy-1H-indol-3-yl)ethyl)acetamide], the “LPT99 in plasma after IT administration” value [1] is reported as “no LPT99 has been found in plasma; also recorded: not detected systemically”, the “LPT99 in plasma after IT administration” value ([1]; listed as LTP99) is reported as “not detectable in plasma” and the “tolerability of single IT dose” value ([2]; rat, 200, 400, or 797 μM, 30 μL per ear) is reported as “generally well tolerated”. For the same compound, the “mass of injected LPT99 at the no observed adverse effect level (NOAEL)” value ([2]; rat, IT, 30 μl of 797 μM) was 15 µg, the “auditory brainstem response (hearing loss)” value ([2]; rat, in vivo) was “no reliable evidence of test-article-related hearing loss” and the “cytocochleogram (hair cell loss)” value ([2]; rat, in vivo) was “no reliable evidence of test-article-related hair cell loss”. The “otoscopic examination of the tympanic membranes (erythema, edema, wounds)” value ([2]; rat, in vivo) was “no statistically significant changes in erythema, edema, or wounds”, the “mortalities, clinical abnormalities, body weight, food intake, clinical pathologies” value ([2]; rat, single bilateral IT 30 μL per ear, 14-day study) was “no LPT99- or gentamicin-related mortalities” and the cell viability [3] was “improved cell viability”. The “LPT99 release from hydrogel over time” value [4] was “released in effective amounts for at least one week”, the “body weights or body weight gains” value ([5]; IP 750 mg/kg, first 7 days, both sex) was “not statistically significantly lower” and the food consumption ([5]; IP 750 mg/kg, males days 1-7, females days 1-4, vs control) was “statistically significant reduction”. The epididymides weight ([5]; IP 750 mg/kg, males, Day 2) was “increase in epididymides weight”, the neutrophil count ([5]; IP 750 mg/kg, males, Day 15) was “minimal increase in neutrophil count” and the “dose proportionality of Cmax and AUClast” value ([5]; female) was “approximate dose proportional increase”. The “dose proportionality of Cmax and AUClast” value ([5]; male) was “More than dose proportional increase”, the liver weight ([5]; IP 300 and 750 mg/kg, males and females, Day 2) was “increase in liver weight” and the “inflammatory response, localisation” value ([5]; IP, Day 2 and Day 15, parenchyma not affected) was “restricted to the mesentery and surface of the visceral organs in abdominal cavity”. The coagulation parameters ([5]; IP, Days 2 and 15) was “not affected”, the urinalysis parameters ([5]; IP, Days 2 and 15) was “unaffected” and the neutrophil count ([5]; IP, all dose groups, Day 2) was “increased neutrophil count”. The “mediastinal lymph node, microscopic finding” value ([5]; IP, all test item injected groups, Day 2) was “necrosis/inflammation of lymph node”, the “exposure in females relative to males” value ([5]; IP, all tested dose levels) was 1.5-5.5 fold and the clinical chemistry parameters ([5]; IP, males) was “no test item related changes”. The general tolerability ([5]; single IP 100, 300, 750 mg/kg) was “generally safe and well tolerated”, the mortality ([5]; single IP 100, 300, 750 mg/kg) was “No mortality was observed” and the clinical signs ([5]; single IP, all tested dose groups) was “no clinical signs observed”. It also gave a Tmax ([6]; IP 100 mg/kg/day, female, read-out: Tmax) of 8 h, a Tmax ([6]; IP 100 mg/kg/day, male, read-out: Tmax) of 2 h and a Tmax ([6]; both sexes, IP, dose levels other than 100 mg/kg/day, both genders, read-out: time to reach peak plasma concentrations (Tmax)) of 24 h. For the same compound, the neurological parameters ([7]; IP 100 mg/kg, Day 1) was “unaffected”, the motor activity scores ([7]; IP 300 and 750 mg/kg, both sexes, day 1, reversible by Day 15) was “lower motor activity scores” and the MRSD ([8]; human) was 535 µM. The “maximum mass of LPT99 to be delivered (1/10 of NOAEL equivalent)” value ([8]; in a volume of 200 μl) was 67.14 µg and the “amount of LPT99 to be injected in humans normalized by perilymph volume at the NOAEL” value ([8]; rat 3.53 μl vs human 158 μl perilymph) was 671.38 µg.
